US10532040B2, “Methods of treating cancer with herbacetin” (REGENTS OF THE UNIVERSITY OF MINNESOTA, priority 2011, dated 2020)
Entries after “also recorded” stand apart in the source; their conditions may differ.

Columns and labels:
ODC [1] = biological target: T1, ODC (Homo sapiens, UniProt P11926); experiment: pull-down assay with herbacetin-conjugated Sepharose 4B beads (recombinant ODC or HCT116 lysate); assay type: binding; details: recombinant ODC protein or HCT116 cell lysate, Western blot
T1 sequence (P11926 1-461): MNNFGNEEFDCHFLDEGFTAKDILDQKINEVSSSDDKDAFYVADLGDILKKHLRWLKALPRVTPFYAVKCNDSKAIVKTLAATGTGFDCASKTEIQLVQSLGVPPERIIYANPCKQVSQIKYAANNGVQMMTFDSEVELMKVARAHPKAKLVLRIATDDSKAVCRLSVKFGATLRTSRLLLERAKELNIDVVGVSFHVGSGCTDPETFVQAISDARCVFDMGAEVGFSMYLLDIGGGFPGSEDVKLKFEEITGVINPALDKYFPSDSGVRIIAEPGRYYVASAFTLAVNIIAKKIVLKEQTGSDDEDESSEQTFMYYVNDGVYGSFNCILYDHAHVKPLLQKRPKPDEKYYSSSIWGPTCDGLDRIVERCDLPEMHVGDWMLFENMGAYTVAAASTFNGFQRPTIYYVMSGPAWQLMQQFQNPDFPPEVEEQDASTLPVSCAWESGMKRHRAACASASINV
Method: A recombinant human ODC protein (200 ng) or total cell lysates (500 μg) to were incubated with herbacetin Sepharose 4B (or Sepharose 4B only as a control) beads (50 μl, 50% slurry) in reaction buffer (50 mM Tris pH 7.5, 5 mM EDTA, 150 mM NaCl, 1 mM DTT, 0.01% NP40, 2 μg/mL bovine serum albumin). After incubation with gentle rocking overnight at 4° C., the beads were washed 5 times with buffer (50 mM Tris pH 7.5, 5 mM EDTA, 150 mM NaCl, 1 mM DTT, 0.01% NP40) and binding was determined by Western blotting.

JB6 epidermal cells = experiment: TPA-induced JB6 cell transformation; assay type: cell-based, mouse; details: 2 weeks
Method: (§1) FIGS. 3A-3H. Anticancer effect of herbacetin. (a) The effect of herbacetin on ODC activity in colon cancer cell lines was measured as the release of CO2 from L-[1-C^14] ornithine. […] (b) The effect of herbacetin and DFMO on the growth of colon cancer cells and (c) TPA-induced JB6 cell growth was compared. Cells were incubated for 72 h and growth was estimated using the MTS assay. (d) The effect of herbacetin on anchorage independent HCT116 colon cancer cell growth and (e) TPA-induced JB6 cell transformation was assessed. Cells were incubated for 2 weeks and then colonies were counted using a microscope and the Image-Pro PLUS (v.6) computer software program. The effect of herbacetin on AP-1 reporter activity in (f) HCT116 colon cancer cells and (g) TPA-induced AP-1 reporter activity in JB6 mouse epidermal cells was analyzed using the substrates included in the reporter assay system. Data are represented as means±S.D. of triplicate values from three independent experiments and the asterisk (*) indicates a significant (p<0.05) effect of herbacetin or DFMO compared to untreated or TPA-treated controls. (h) The effect of herbacetin on the phosphorylation of ERK1 and ERK2 in HCT116 colon cancer cells was determined by Western blotting. Similar results were observed from two independent experiments.

ERK1/2, p90^RSK = experiment: Western blotting of ERK1/2 and p90RSK phosphorylation in HCT116 cells; assay type: cell-based
Method: as §1, with “Data are represented as means±S.D. of triplicate values from three independent experiments and the asterisk (*) indicates a significant (p<0.05) effect of herbacetin or DFMO compared to untreated or TPA-treated controls.” left out, “Similar results were observed from two independent experiments.” left out
We determined whether herbacetin affected the reporter activity of the MAP kinase target transcription factor, activator protein-1 (AP-1), in HCT116 cells or JB6 cells stimulated with TPA. […] AP-1 reporter activity was then measured (FIG. 3f, g) and the activity was attenuated by herbacetin in colon cancer cells and in TPA-activated JB6 cells. […]

ODC [2] = biological target: T2, ODC (Mus musculus, UniProt P00860); experiment: ODC activity in TPA-treated JB6 mouse skin epidermal cells; assay type: cell-based
T2 construct: endogenous in cells; host or cells: JB6 mouse skin epidermal cells, TPA-treated
T2 sequence (P00860 1-461): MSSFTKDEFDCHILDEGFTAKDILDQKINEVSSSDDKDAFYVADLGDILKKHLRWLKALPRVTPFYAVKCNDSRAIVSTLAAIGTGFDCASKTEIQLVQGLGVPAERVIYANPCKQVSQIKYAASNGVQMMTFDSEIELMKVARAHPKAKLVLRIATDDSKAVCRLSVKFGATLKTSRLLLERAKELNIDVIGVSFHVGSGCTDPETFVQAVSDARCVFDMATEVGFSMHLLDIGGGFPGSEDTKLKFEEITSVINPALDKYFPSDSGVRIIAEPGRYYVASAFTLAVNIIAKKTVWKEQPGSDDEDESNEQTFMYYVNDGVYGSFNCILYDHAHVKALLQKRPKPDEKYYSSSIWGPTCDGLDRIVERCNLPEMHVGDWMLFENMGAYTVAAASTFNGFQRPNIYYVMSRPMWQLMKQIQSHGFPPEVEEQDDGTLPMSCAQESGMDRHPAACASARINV
Method: ODC activity was measured as the release of CO2 from L-[1-C^14] ornithine as previously described ([…]).

In the case of `O=c1c(O)c(-c2ccc(O)cc2)oc2c(O)c(O)cc(O)c12` [herbacetin, 3,5,7,8,4′-Pentahydroxyflavone], the “binding to ODC” value (ODC [1]) is reported as “directly binds to ODC; also recorded: bind to ornithine decarboxylase (ODC)”, the “TPA-induced neoplastic transformation of JB6 epidermal cells” value (JB6 epidermal cells) is reported as “markedly suppressed” and the “phosphorylation of ERK1/2 and p90^RSK” value (ERK1/2, p90^RSK) is reported as “suppressed phosphorylation”. The “suppression of ODC activity” value (ODC [2]) was “markedly more effective than DFMO; also recorded: inhibit TPA-induced ODC1 activity”.
